Experiments:
[1] = molecular target: T1, MK2 (Homo sapiens, UniProt P49137); test: MK2 degradation in human SW1353 cells (MSD, 24 h); assay type: cell-based; design: endogenous in cells; host or cells: SW-1353 (ATCC HTB-94); key to MK2 MSD SW1353 degradation 24 h GMean External Abs DC50: A (<0.001 μM); B (0.001-0.01 μM); C (0.01-0.1 μM); D (>0.1 μM); —: “-”=not tested or inactive; key to MK2 MSD SW 1353 24 h Dmax %: —: “-”=not tested or inactive; settings: for Dmax: read-out: MK2 MSD SW 1353 24 h Dmax %; for DC50: read-out: MK2 MSD SW1353 degradation 24 h GMean External Abs DC50
T1 sequence (P49137 whole entry): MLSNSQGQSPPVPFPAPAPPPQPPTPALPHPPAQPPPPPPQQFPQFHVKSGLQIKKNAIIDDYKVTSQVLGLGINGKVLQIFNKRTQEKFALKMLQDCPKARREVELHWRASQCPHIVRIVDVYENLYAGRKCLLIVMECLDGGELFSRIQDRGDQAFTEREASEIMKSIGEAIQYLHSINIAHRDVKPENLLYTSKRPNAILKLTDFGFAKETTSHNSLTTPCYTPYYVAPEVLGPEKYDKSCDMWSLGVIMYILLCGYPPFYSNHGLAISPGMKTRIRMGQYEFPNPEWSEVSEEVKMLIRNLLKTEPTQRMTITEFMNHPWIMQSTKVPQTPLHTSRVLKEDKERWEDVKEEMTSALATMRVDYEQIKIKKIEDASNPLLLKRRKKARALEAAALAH
Experimental: MK2 Degradation in Human SW1353 Cells
The human chondrocyte cancer cell line SW-1353 (ATCC(HTB-94)) was cultured in 96 well plates (Corning 3894) at a density of 200,000 cells per well in 100 microlitres in complete growth medium of Leibovitz's L-15 Medium (Gibco) pus 10% fetal Bovine Serum (Corning) and Penicillin/Streptomycin (SolarBio) at 37 degrees Celsius. A serial dilution of each compound (usually 3 to 5 fold serial dilutions up to 10 separate concentration points) was added to individual wells from a 10 millimolar stock solution, at a background concentration of 0.1% DMSO and the cells were shaken at 600 rpm for 5 minutes and then were cultured for 24 hours at 37 degrees Celsius. Separately, a custom MSD (MesoScaleDiscovery, L15XA-3) plate for detection of human MK2 was prepared by coating the plate with the commercial AbCam ab247272 reagent in 1×Phosphate Buffered Saline at 40 microlitres per well and incubated at 4 degrees Celsius overnight. The next day, the MSD plate was washed with 150 microlitres of Tween buffered saline, blocked with MSD blocking buffer (3% Blocker A from MSD), and washed again.
(§1) The cell plate was centrifuged at 3,200 g for 5 minutes and the supernatant was discarded and 100 microlitres of RIPA lysis buffer (containing proteinase inhibitors, Boston BioProducts BP-115D) was added and the plate was sealed and shaken on ice for 20 minutes. The plate was centrifuged as before and 70 microlitres of sample lysate was added to the MSD plates and they were shaken at room temperature for 1 hour at 600 rpm. The MSD plate was washed 3 times as before and then the primary MK2 detection antibody (Santa Cruz sc-100393) was added at a final concentration of 1 microgram per ml at 25 microlitres per well and shaken at room temperature for 1 hour at 600 rpm.
(§2) After 3 more washes, the secondary detection antibody (SULFO-Tag anti rabbit antibody R32AB-5) was added at a final concentration of 1 microgram per ml at 25 microlitres per well and shaken at room temperature for 1 hour at 600 rpm. After 3 more washes, the 1×MSD (diluted from 5× concentrate with water) reading buffer was added at 150 microlitres per well and read on the MSD instrument Meso Sector S 600.
(§3) The inhibition/degradation curves and DC50 values were plotted and calculated using XL Fit (version v5.3.1.3) using equation 201 and a 4 parameter logistic model whereby fit=(A+((B−A)/(1+((x/C)D))) where A is the Bottom and B is the Top and C is the IC50 and D is the slope and high C is the signal for the DMSO treated cells and Low C is the signal is the signal for the lysis buffer.

[2] = molecular target: T1, MK2; test: MK2 degradation in human THP-1 monocytic cells (MSD, 24 h); assay type: cell-based; design: endogenous in cells; key to MK2 MSD THP-1 degradation 24 h GMean External Abs DC50: A (<0.001 μM); B (0.001-0.01 μM); C (0.01-0.1 μM); D (>0.1 μM); —: “-”=not tested or inactive; settings: for Dmax: THP-1, THP-1 cells; for DC50: read-out: MK2 MSD THP-1 degradation 24 h GMean External Abs DC50
Experimental: MK2 Degradation in Human THP-1 Monoctyic Cells
The human monocytic cancer cell line THP-1 (ATCC (TIB-202)) was cultured in 96 well plates (Corning 3894) at a density of 200,000 cells per well in 100 microlitres in complete growth medium of RPMI 1640 (Gibco) pus 10% fetal Bovine Serum (Corning) and Penicillin/Streptomycin (SolarBio) at 37 degrees Celsius and 5% CO2. A serial dilution of each compound (usually 3 to 5 fold serial dilutions up to 10 separate concentration points) was added to individual wells from a 10 millimolar stock solution, at a background concentration of 0.1% DMSO and the cells were shaken at 600 rpm for 5 minutes and then were cultured for 24 hours at 37 degrees Celsius and 5% carbon dioxide. Separately, a custom MSD (MesoScaleDiscovery, L15XA-3) plate for detection of human MK2 was prepared by coating the plate with the commercial AbCam ab247272 reagent in 1×Phosphate Buffered Saline at 40 microlitres per well and incubated at 4 degrees Celsius overnight. The next day, the MSD plate was washed with 150 microlitres of Tween buffered saline, blocked with MSD blocking buffer (3% Blocker A from MSD), and washed again.
as §1, §2, §3

Structure (SMILES) | MK2 MSD SW 1353 24 h Dmax % [1] | MK2 MSD SW1353 degradation 24 h GMean External Abs DC50 [1] | Dmax [2] [%] | DC50 ([2]; THP-1 cells) [nM] | Dmax [1] [%] | DC50 [1] [nM] | MK2 MSD THP-1 degradation 24 h GMean External Abs DC50 ([2]; THP-1 cells)
Cn1c(=O)n(C2CCC(=O)NC2=O)c2ccc(CCN3CCN(c4ccc(-c5cc(-c6cc7c([nH]6)C6(CC6)CNC7=O)ccn5)cn4)CC3)cc21 (stereo not shown) [Compound I-201] | — | — | < 50 | > 100 |  |  | 
Cn1c(=O)n(C2CCC(=O)NC2=O)c2cccc(CCN3CCN(c4ccc(-c5cc(-c6cc7c([nH]6)C6(CC6)CNC7=O)ccn5)cn4)CC3)c21 (stereo not shown) [Compound I-200] |  | — | > 75 | 1 to 10 | > 75 |  | 
O=C1CCC(N2Cc3cc(N4CCN(CC5CCN(c6ccc(F)c(-c7cc(-c8cc9c([nH]8)CCNC9=O)ccn7)c6)CC5)CC4)ccc3C2=O)C(=O)N1 (stereo not shown) [Compound I-301] |  |  | < 50 | > 100 | < 50 | > 100 | 
C[C@@H]1CNc2c(sc3ccc4nc(-c5ccc(C#CCCNC(=O)CCCCCCCc6ccc7c(c6)n(C)c(=O)n7C6CCC(=O)NC6=O)cc5)ccc4c23)C(=O)N1 (stereo partly shown) [Compound I-55] |  |  | > 75 | 1 to 10 | > 75 | 1 to 10 | 
C[C@@H]1CNc2c(sc3ccc4nc(-c5ccc(C#CCCNC(=O)CCCCCCCCCc6cccc7c6n(C)c(=O)n7C6CCC(=O)NC6=O)cc5)ccc4c23)C(=O)N1 (stereo partly shown) [Compound I-54] |  |  |  | 10 to 100 | > 75 |  | 
Cn1c(=O)n(C2CCC(=O)NC2=O)c2cccc(N3CC(CN4CCN(c5ccc(-c6cc(-c7cc8c([nH]7)C7(CC7)CNC8=O)ccn6)cc5)CC4)C3)c21 (stereo not shown) [Compound I-190] |  |  | > 75 | < 1 | > 75 | < 1 | 
C[C@@H]1CNc2c(sc3ccc4nc(-c5ccc(N6CCN(C[C@H]7C[C@H](c8ccc9c(c8)n(C)c(=O)n9C8CCC(=O)NC8=O)C7)CC6)cc5)ccc4c23)C(=O)N1 (stereo partly shown) [Compound I-222] |  |  | > 75 | < 1 | > 75 | < 1 | 
CCc1cc(-c2cc(-c3cc4c([nH]3)C3(CC3)CNC4=O)ccn2)cc(CC)c1N1CCN(CC2CCN(c3ccc4c(c3)n(C)c(=O)n4C3CCC(=O)NC3=O)CC2)CC1 (stereo not shown) [Compound I-448] |  |  | < 50 | > 100 | 50 to 75 | 1 to 10 | 
C[C@@H]1CNc2c(sc3ccc4nc(-c5ccc([C@H]6CC[C@H](CN7CCN(c8ccc9c(c8)n(C)c(=O)n9C8CCC(=O)NC8=O)CC7)CC6)nc5)ccc4c23)C(=O)N1 (stereo partly shown) [Compound I-232] |  |  | > 75 | < 1 | > 75 | < 1 | 
C[C@@H]1CNc2c(sc3ccc4nc(-c5ccc(N6CCN(CCCc7cccc8c7n(C)c(=O)n8C7CCC(=O)NC7=O)CC6)nc5)ccc4c23)C(=O)N1 (stereo partly shown) [Compound I-288] |  |  | > 75 | < 1 | > 75 | < 1 | 
C[C@@H]1CNc2c(sc3ccc4nc(-c5ccc(N6CCN(CCCc7ccc8c(c7)n(C)c(=O)n8C7CCC(=O)NC7=O)CC6)cc5Cl)ccc4c23)C(=O)N1 (stereo partly shown) [Compound I-251] |  |  | < 50 |  | 50 to 75 | < 1 | —
C[C@@H]1CNc2c(sc3ccc4nc(-c5ccc(C6CCN(CC7CCN(c8cccc9c8n(C)c(=O)n9C8CCC(=O)NC8=O)CC7)CC6)nc5)ccc4c23)C(=O)N1 (stereo partly shown) [Compound I-122] |  |  | > 75 | < 1 | > 75 | < 1 | 
C[C@@H]1CNc2c(sc3ccc4nc(-c5ccc(N6CCN(CC7CCN(c8ccc(C9CCC(=O)NC9=O)cc8)CC7)CC6)nc5)ccc4c23)C(=O)N1 (stereo partly shown) [Compound I-421] |  |  | > 75 | 1 to 10 | > 75 | 1 to 10 | 
C[C@@H]1Cc2oc(-c3ccnc(-c4ccc(N5CCN(CC6CCN(c7ccc8c(c7)n(C)c(=O)n8C7CCC(=O)NC7=O)CC6)CC5)nc4)c3)cc2C(=O)N1 (stereo partly shown) [Compound I-209] |  | — | < 50 | > 100 | < 50 |  | 
C[C@@H]1CNc2c(sc3ccc4nc(-c5cccc(C#CCCNC(=O)COCCOCCc6ccc7c(c6)n(C)c(=O)n7C6CCC(=O)NC6=O)c5)ccc4c23)C(=O)N1 (stereo partly shown) [Compound I-49] |  |  | > 75 | 1 to 10 | > 75 | 1 to 10 | 
C[C@@H]1CNc2c(sc3ccc4nc(-c5ccc(N6CCC(CN7CCN(c8ccc9c(c8)n(C)c(=O)n9C8CCC(=O)NC8=O)CC7)CC6)cc5)ccc4c23)C(=O)N1 (stereo partly shown) [Compound I-314] |  |  | > 75 | < 1 | > 75 | < 1 | 
C[C@@H]1CNc2c(sc3ccc4nc(-c5ccc(N6CCC(CN7CCC(c8cccc9c8n(C)c(=O)n9C8CCC(=O)NC8=O)CC7)CC6)cc5F)ccc4c23)C(=O)N1 (stereo partly shown) [Compound I-299] |  |  | > 75 | < 1 | > 75 | < 1 | 
C[C@@H]1Cc2oc(-c3ccnc(-c4ccc(N5CCN(CC6CN(c7ccc8c(c7)n(C)c(=O)n8C7CCC(=O)NC7=O)C6)CC5)nc4)c3)cc2C(=O)N1 (stereo partly shown) [Compound I-417] |  |  | > 75 | 1 to 10 | > 75 | < 1 | 
Cn1c(=O)n(C2CCC(=O)NC2=O)c2ccc(CCCN3CCN(c4ccc(-c5cc(-c6cc7c([nH]6)C6(CC6)CNC7=O)ccn5)cc4)CC3)cc21 (stereo not shown) [Compound I-242] |  |  | 50 to 75 | 10 to 100 | > 75 | 1 to 10 | 
Cn1c(=O)n(C2CCC(=O)NC2=O)c2ccc(N3CCC(CN4CCN(c5ccc6occc6c5-c5cc(Nc6ccnc(N)n6)cc6cn[nH]c56)CC4)CC3)cc21 (stereo not shown) [Compound I-453] |  |  | < 50 | > 100 | < 50 | > 100 | 
C[C@@H]1CNc2c(sc3ccc4nc(-c5ccc(CNC(=O)CCCCCCCc6cccc7c6n(C)c(=O)n7C6CCC(=O)NC6=O)cc5)ccc4c23)C(=O)N1 (stereo partly shown) [Compound I-88] |  |  | > 75 | 1 to 10 | > 75 | 1 to 10 | 
C[C@@H]1CN(C)c2c(sc3ccc4nc(-c5cccc(N6CCC(CN7CCN(c8cccc9c(N%10CCC(=O)NC%10=O)cncc89)CC7)CC6)c5)ccc4c23)C(=O)N1 [Compound I-267] |  |  | < 50 | > 100 | < 50 | > 100 | 
C[C@@H]1CNc2c(sc3ccc4nc(-c5cc(N6CCC(CN7CCN(c8cccc9c8n(C)c(=O)n9C8CCC(=O)NC8=O)CC7)CC6)ccc5F)ccc4c23)C(=O)N1 (stereo partly shown) [Compound I-285] |  |  | > 75 | 1 to 10 | > 75 | 1 to 10 | 
Cn1c(=O)n(C2CCC(=O)NC2=O)c2ccc(N3CCC(CN4CCN(c5ccc(-c6cc(-c7cc8c([nH]7)C7(CCC7)CNC8=O)ccn6)cn5)CC4)CC3)cc21 (stereo not shown) [Compound I-213] |  |  | > 75 | < 1 | > 75 | < 1 | 
